From patent EP0761658A1, “Azole-phenyl urea derivatives as ACAT inhibitors and their production” (NIHON NOHYAKU CO., LTD., priority 1995, dated 1997) come the findings set out here.

The subject of test [1] is rats fed on a high-cholesterol diet. Put plainly: Serum cholesterol lowering activity in rats fed on a high-cholesterol diet. As to conditions: Rattus norvegicus, 96 h; total serum cholesterol; 30 mg per kg of body weight per day for 4 days, suspended in 0.5% carboxymethyl cellulose; blood 24 hours after last administration; read-out: Reduction rate (%). It counts as in vivo, Male Sprague-Dawley rats. The protocol:
Male Sprague-Dawley rats of 6-week-old were divided into three groups. The first group (normal group) was fed an ordinary diet for 4 days. The second group (control group) was fed a high cholesterol diet (containing 1.0% cholesterol, 1.0% cholic acid and 8.5% coconut oil) for 4 days. The third group (treated group) was fed a high cholesterol diet and was treated with a compound for 4 days.
Simultaneously with the beginning of the above feeding, the compound was suspended in a 0.5% carboxymethyl cellulose solution and administered to the treated group, in a dose of 30 mg (in terms of the compound) per kg of body weight per day for 4 days. A 0.5% carboxymethyl cellulose solution was also administered to the normal group and the control group in the same manner as above.
After 24 hours of the last administration, blood was collected and the cholesterol concentration in serum was measured by an enzymatic method. The reduction rate of the total serum cholesterol concentration was calculated from values obtained for the three groups by the following equation. Choresterol reduction rate (%) =((A) - (B))/((A) - (C))x 100 [formula] wherein A: the serum cholesterol concentration of the control group. B: the serum cholesterol concentration of the treated group. C: the serum cholesterol concentration of the normal group.

In test [2] the test system is acyl-CoA:cholesterol acyltransferase (ACAT). Put plainly: Inhibitory activity on acyl-CoA:cholesterol acyltransferase (ACAT), microsomal fraction of intestinal mucosa, [1-14C]oleyl-CoA incorporation into cholesterol esters. The test is classed as biochemical, white rabbit. The following applies: compound concentration 0.01 µm; rabbit intestinal mucosa microsomes. As for the experimental part: The enzyme used in the test was prepared according to the method of Heider et al. [J. Lipid Res. 24, 1127 (1983)]. A white rabbit was killed by blood-letting under anesthesia, after which its intestinal mucosa was collected and then homogenized, and microsomal fraction was obtained by stepwise centrifugation. The microsomal fraction was suspended in 0.154 M phosphate buffer (pH 7.4) and stored at -80°C until use.
ACAT activity was determined by a modification of the method of Helgerud et al. [J. Lipid Res. 22, 271 (1981)] by measuring radioactivity incorporated into cholesterol esters from [1-^14C]oleyl-CoA, as an indication. As to the ACAT-inhibitory activity of each compound to be tested, the inhibition rate was calculated by the following equation. Inhibition rate (%) =([ACAT activity of control group which was given solvent]-[ACAT activity of group treated with compound to be tested])/([ACAT activity of control group which was given solvent])x 100 [formula]

For `Cc1ccccc1-c1oc(-c2ccccc2)nc1NC(=O)Nc1c(C(C)C)cccc1C(C)C` [Compound 31, N-(2,6-Diisopropylphenyl)-N'-[5-(2-methylphenyl)-2-phenyloxazol-4-yl]urea], the inhibition in vivo at 30 mg/kg in test [1] came out at 59.8%. In test [2], the Inhibition rate % was 70.6%.
On to `Cc1ccccc1-c1nc(-c2ccccc2)oc1NC(=O)Nc1c(C(C)C)cccc1C(C)C` [Compound 33, N-(2,6-Diisopropylphenyl)-N'-[4-(2-methylphenyl)-2-phenyloxazol-5-yl]urea], for which, in test [1], the inhibition in vivo at 30 mg/kg was found to be 73.2%. The compound also came in with an Inhibition rate % in test [2] of 62.0%.
Take `CC(C)c1cccc(C(C)C)c1NC(=O)Nc1nc(-c2ccccc2)n(Cc2ccccc2)c1-c1ccccc1Cl` [Compound 37, N-[1-Benzyl-5-(2-chlorophenyl)-2-phenylimidazol-4-yl]-N'-(2,6-diisopropylphenyl)urea]: the inhibition in vivo at 30 mg/kg in test [1] is 59%. Moreover, the Inhibition rate % in test [2] amounted to 80.4%.
